These results are taken from patent US8575100B2, “Tc and Re labeled radioactive glycosylated octreotide derivatives” (Mallinckrodt LLC, priority 2001, dated 2013).

The nature of data set [1]: Determination of lipophilicity (octanol/PBS). The format is physicochemical. As to conditions: octanol/PBS pH 7.4; radiolabeled peptide; n=6. The method, then:
To a solution of app. 300000 cpm of radiolabeled peptide in […] of PBS (pH 7.4), […] of octanol were added (n=6). Vials were vortexed for 3 min and then centrifuged at 15000 rpm for 6 min. Aliquots of […] of PBS and octanol were measured in a γ-Counter.

The test system of data set [2] is AR42J-cells (SSTR2). In words: Internalization of radioligands in AR42J cells. The note with it: for internalised ligand / internalisation rate (% internalised ligand/% surface-bound ligand): 60 min incubation; for internalised ligand: normalized to the reference [125I]TOC; for internalisation rate (% internalised ligand/% surface-bound ligand): ratio normalized to the reference [125I]TOC. As for the experimental part:
(§1) The cells were incubated with the radioligand for up to 120 min (n=3). At each time point the activity in the supernatant, the surface-bound and the internalized activity were determined and normalized to the values of TOC. Externalization and recycling was studied after an incubation time of 120 min over 2 h. Specificity of ligand binding was studied in a competition experiment with […] Sandostatin.
(§2) Internalisation and externalisation experiments were performed using the sst2 expressing rat pancreatic tumor cell line AR42J. Free, surface bound and internalised radioactivity were determined after 10, 30, 60, 90 and 120 min. of incubation with the radioligands at 37° C. In the externalisation experiments allowing ligand recycling, the fraction of radioactivity released into the supernatant during 10, 30, 60, 90 and 120 min as well as the radioactivity remaining in the cells were determined. We also measured the activity released during 5 subsequent incubations (10, 20 and 3×30 min) with intermediate changes of the medium (limited recycling).
Coupling of glucose (Gluc) and maltotriose (Mtr) to N^α-Lys of N^ε-(Boc-His(Boc))Lys^0-Tyr^3-Lys^5(Dde)-octreotide (protected K(H)TOC) and final deprotection yielded Gluc- and Mtr-K(H)TOC. ^99mTc-labeling was carried out using [^99mTc(H2O)3(CO)3]^+. […] Biodistribution was evaluated in nude mice bearing AR42J tumors at 0.5 and 2 h p.i (n=4).
N^ε(Boc-His(Boc))Lys^0-Tyr^3-Lys^5 (Dde)-octreotide (protected K(H)TOC) was synthesized using standard Fmoc-chemistry. […] Tc-99m-labeling was carried out using the organometallic aquaion [^99mTc (H2O)3 (CO)3]^+(1). Internalization and externalization studies (<120 min) were performed for both compounds using the SSTR2 expressing cell line AR42J. […] Biodistribution of intravenously administered [^99mTc]Gluc-K(H)TOC and [^99mTc]Mtr-K(H)TOC was evaluated in nude mice bearing AR42J rat pancreatic tumors at 30 and 120 min p.i(n=4).
Six-well plates with a cell population of 8×10^5-5×10^6 AR42J-cells per well were incubated at 37° C. with fresh culture medium (RPMI 1640, 1% BSA, 2 mM L-glutamine) for 1 h prior to the experiment. Then app. […] After incubating for 10, 30, 60, 90 or 120 min. at 37° C. the supernatant was collected and the cells were washed once with 1 ml of cold medium. The supernatant was pooled with the supernatant of the previous step. To remove receptor bound (acid releasable) radioactivity the cells were incubated at 37° C. with 1 ml of 0.02 M NaOAc (acid wash). After 10 min. the supernatant was collected, the cells were washed once with 1 ml of 0.02 M NaOAc and the supernatant was again pooled with the supernatant of the previous step. Then the cells were extracted with 1 ml of 1 N NaOH and the wells were rinsed once with PBS. This pooled fraction represents internalized radioligand. The activity in the NaOH-fraction as well as in the supernatant- and in the acid wash-fractions was counted in a γ-Counter.

Data set [3] relates to AR42J-cells (SSTR2). In words: Externalization and recycling of radioligands in AR42J cells. It is filed as cell-based, rat. As to conditions: for externalisation from the cell (in words): upon incubation up to 120 min; for extracellularly located radioactivity compared to the experiment without recycling: externalization experiment that allowed recycling. The method, then: as §1, §2
As described for the internalization studies, the six-well plates were incubated at 37° C. with fresh culture medium (RPMI 1640, 1% BSA, 2 mM L-Glutamine) for 1H prior to the experiment. Then app. […] After incubating for 120 min. at 37° C., the supernatant was collected and the cells were washed once with 1 ml of cold medium. The supernatant was pooled with the supernatant of the previous step. To collect externalized radioactivity the cells were then incubated at 37° C. with 1 ml of culture medium. After 10, 30, 60, 90 and 120 minutes respectively, the supernatant was collected, the cells were washed once with 1 ml of culture medium and the supernatant was again pooled with the supernatant of the previous step. Then the cells were extracted with 1 ml of 1 N NaOH and the wells were rinsed once with PBS. This pooled fraction represents radioligand still located in the cell. The activity in the NaOH-fraction as well as in the supernatant- and in the externalisation-fractions was counted in a γ-Counter.
As described for the previous experiment, a six-well plate was incubated for 120 min. at 37° C. with radioligand. The supernatant was collected and the cells were washed once with 1 ml of cold medium. The supernatant was pooled with the supernatant of the previous step. To collect externalized radioactivity the cells were then incubated at 37° C. with 1 ml of culture medium. After 10 min. the supernatant was collected and the cells were again incubated with 1 ml of culture medium for another 20 min. at 37° C. The supernatant was collected and the cells were three more times incubated with 1 ml of culture medium for 30 min. at 37° C. Then the cells were extracted with 1 ml of 1 N NaOH and the wells were rinsed once with PBS. This pooled fraction represents radioligand still located in the cell. The activity in the NaOH-fraction as well as in the externalisation-fractions at all time points was counted in a […].

Consider “(1-deoxy-D-fructosyl)-Lys^0Nε-His)-Tyr^3-octreotide [S1-Lys^0(His)TOC]”, for which the “log Pow” value in data set [1] is given as “log Pow = −0.673 ± 0.064”.

Turning to “Na-(1-deoxy-D-fructosyl)-Lys^0(Nε-His [^99mTc (H2O)(CO)3]+)-Tyr^3-octreotide [[^99mTc]Gluc-K^0(H)TOC]”, in the data set on AR42J-cells (SSTR2) [2], the internalised ligand amounted to 234 ± 24 and the “internalisation rate (% internalised ligand/% surface-bound ligand)” value was 171 ± 29. Further, the “increase of internalisation by a factor compared to the reference [125I]TOC” value in the data set with AR42J-cells (SSTR2) [2] (Example 2, time not given) amounted to 2.3±0.8. In the data set on AR42J-cells (SSTR2) [2] (at 2 h (120 min)), the “intracellular activity levels, times higher than [125I]TOC” value is listed as 2.3±0.2 times. For the same substance, in the data set with AR42J-cells (SSTR2) [3], the “externalisation from the cell (in words)” value is on record as “remains trapped within the cell up to 120 min”. The “externalisation from the cell (in words)” value in the data set on AR42J-cells (SSTR2) [3] (listed as [^99mTc]Gluc-K(H)TOC) is given as “almost stable up to 2h”. Besides, in the data set on AR42J-cells (SSTR2) [3] (within 120 min, recycling allowed), the “retention in the cell under recycling conditions” value was “nearly quantitative retention”.

[^125I]Tyr^3-octreotate [[^125I]TOCA]: in the data set on AR42J-cells (SSTR2) [2], the “surface availability (% surface-bound ligand/% free radioligand)” value came to 182 ± 6, the internalised ligand is listed as 204 ± 7 and the “internalisation rate (% internalised ligand/% surface-bound ligand)” value stood at 140 ± 8. Also, the “amount of internalized ligand [% internalized TOC]” value in the data set on AR42J-cells (SSTR2) [2] (after 2 h of incubation, normalized to TOC) stood at 154%. In addition, in the data set with AR42J-cells (SSTR2) [2] (compared to TOC), the “internalization rate (internalized/surface bound act.) increase” value is recorded as 1.4 fold and the “surface concentration (availability on the cell surface) increased by a factor compared to TOC” value is recorded as 2.1. Besides, the “extracellularly located radioactivity compared to the experiment without recycling” value with AR42J-cells (SSTR2) [3] (printed as a fraction) is “about ⅔”.

As for [^125I]Tyr^3-octreotide [[^125I]TOC], in the data set with AR42J-cells (SSTR2) [2], the internalised ligand came out at 100 and the “internalisation rate (% internalised ligand/% surface-bound ligand)” value was found to be 100. For the same substance, in the data set with AR42J-cells (SSTR2) [3], the “extracellularly located radioactivity compared to the experiment without recycling” value is reported as “about 80%” and the “externalisation from the cell (in words)” value was “rapidly externalised”. Also, the “decrease of intracellular activity” value with AR42J-cells (SSTR2) [3] (within 2 h (120 min)) is “about 50%”.
